Data: ChEMBL document CHEMBL1201862, “PubChem BioAssay data set” (2004)
The source made the active and inactive calls.

Key:
[1] = biological target: Potassium voltage-gated channel subfamily KQT member 2 (Rattus norvegicus, UniProt O88943, W236L); assay: potentiation of rat KCNQ2 current – cell-based, automated electrophysiology, mechanism study for KCNQ2 potentiator project, dose response (AID 2603); format: functional
H4 = assay: Luminescence Cell-Based Dose Response HTS to Identify Activators of 5'UTR Stem-Loop Driven Prion Protein mRNA Translation in H4 Neuroglioblastoma Cells. [Related pubchem assays: 1829 (Project Summary), 1814 (Primary HTS)]; format: functional; conditions: Homo sapiens
[2] = Luminescence Cell-Based Dose Retest to Confirm Inhibitors of Cancer Stem Cells. [Related pubchem assays (depositor defined):AID2717, AID2721]; format: functional; conditions: Homo sapiens
[3] = Luminescence Cell-Based Dose Response HTS to Identify Activators of Luciferase Translation or Activity in H4 […] Cells. [Related pubchem assays: 1829 (Project Summary), 1814 (Primary HTS)]; format: functional
[4] = Luminescence Cell-Based Dose Response to Identify Activators of Luciferase Translation or Activity in H4-C Neuroglioblastoma Cells. [Related pubchem assays: 1829 (Project Summary), 1814 (Primary HTS)]; format: functional
Cytochrome P450 2D6 = Cytochrome P450 2D6 (Homo sapiens, UniProt P10635);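 further: CYP2D6 member of a cytochrome P450 panel assay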
[5] = Luminescence Cell-Based Dose Response to Identify Activators of 5'UTR Stem-Loop Driven Prion Protein mRNA Translation in H4-C Neuroglioblastoma Cells. [Related pubchem assays: 1829 (Project Summary), 1814 (Primary HTS)]; format: functional
[6] = Luminescence Cell-Based Dose Confirmation to Identify Activators of 5'UTR Stem-Loop Driven Alpha-Synuclein mRNA Translation in H4 Neuroglioblastoma Cells. [Related pubchem assays: 1829 (Project Summary), 1814 (Primary HTS)]; format: functional
Streptokinase A = biological target: T1, Streptokinase A (Streptococcus pyogenes serotype M1, UniProt P10520); assay: viability-normalized secreted streptokinase activity reduction – plasminogen activation absorbance, OD405, dose response (AID 1914); format: functional, Streptococcus pyogenes M1 GAS;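 further: secreted streptokinase activity via plasminogen activation per viability signal from cell pellet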
T1 sequence (P10520 whole entry): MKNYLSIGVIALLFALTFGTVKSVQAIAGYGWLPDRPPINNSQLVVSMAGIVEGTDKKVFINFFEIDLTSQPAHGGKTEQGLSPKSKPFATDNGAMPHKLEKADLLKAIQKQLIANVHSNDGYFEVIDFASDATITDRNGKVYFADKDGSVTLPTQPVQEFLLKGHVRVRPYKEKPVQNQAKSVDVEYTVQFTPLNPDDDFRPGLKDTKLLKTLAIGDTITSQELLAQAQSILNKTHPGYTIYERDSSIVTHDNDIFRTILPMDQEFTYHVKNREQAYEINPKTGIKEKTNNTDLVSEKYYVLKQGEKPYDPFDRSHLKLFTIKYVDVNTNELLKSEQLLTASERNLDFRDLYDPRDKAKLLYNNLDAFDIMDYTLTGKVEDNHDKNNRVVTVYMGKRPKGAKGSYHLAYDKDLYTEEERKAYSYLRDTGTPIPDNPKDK

[7] = biological target: Peroxisome proliferator-activated receptor gamma/Nuclear receptor corepressor 2 (Homo sapiens, UniProt P37231+Q9Y618); format: functional
[8] = biological target: T2, Heat shock factor protein 1 (Mus musculus, UniProt P38532); assay: enhancement of HSF1-driven luciferase signal – cell-based, NIH3T3, luminescence, dose retest, confirmation (AID 435004); format: functional;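 further: stress induced by proteasome inhibitor MG132 added 30 min after compound; luciferase reporter driven by HSF1 response element in NIH3T3 cells; actives raise luminescence as potentiators of the MG132 stress response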
T2 sequence (P38532 whole entry): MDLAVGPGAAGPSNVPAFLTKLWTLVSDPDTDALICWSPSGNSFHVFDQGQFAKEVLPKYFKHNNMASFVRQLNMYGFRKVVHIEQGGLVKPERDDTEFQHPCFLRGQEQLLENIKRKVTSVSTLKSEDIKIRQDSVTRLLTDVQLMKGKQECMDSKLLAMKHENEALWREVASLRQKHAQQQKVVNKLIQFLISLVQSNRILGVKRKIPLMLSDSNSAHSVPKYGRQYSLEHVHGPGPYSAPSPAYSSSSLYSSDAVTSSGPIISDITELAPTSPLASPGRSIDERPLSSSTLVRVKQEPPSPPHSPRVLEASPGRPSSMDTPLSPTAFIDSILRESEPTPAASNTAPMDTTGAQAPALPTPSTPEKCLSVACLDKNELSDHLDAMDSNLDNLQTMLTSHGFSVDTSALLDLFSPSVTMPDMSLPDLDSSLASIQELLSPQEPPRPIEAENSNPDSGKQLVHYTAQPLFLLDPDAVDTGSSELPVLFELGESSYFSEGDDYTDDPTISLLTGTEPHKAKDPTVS

[9] = biological target: Photoreceptor-specific nuclear receptor (Homo sapiens, UniProt Q9Y5X4); format: functional;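 further: potency for compounds that break the NR2E3 corepressor complex and count as activators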
[10] = SNU-C1 cell viability reduction, dose response, CellTiter-Glo luminescence (AID 1117323); format: functional, cell-based
[11] = cytotoxicity toward HT-29 cells – cell-based, CellTiter-Glo luminescence, IC50, dose response (AID 1117330); format: functional
[12] = Reduced DLD-1 viability, concentration-response, CellTiter-Glo luminescence (AID 1117352); format: functional
[13] = CellTiter-Glo luminescence survival assay, SW480 colon tumor line, concentration-response curve, half-maximal inhibitory concentration (AID 1117338); format: functional
[14] = cytotoxicity toward Colo320 cells – cell-based, CellTiter-Glo luminescence, IC50, dose response (AID 1117334); format: functional; conditions: COLO 320
[15] = HCT116 cell viability decrease, GSK3B pretreatment – CellTiter-Glo, IC50, dose response (AID 1117339); format: functional; conditions: HCT-116
[16] = cytotoxicity toward HCT116 cells – cell-based, CellTiter-Glo luminescence, IC50, dose response (AID 1117332); format: functional; conditions: HCT-116
[17] = RKO cell viability reduction, dose response, CellTiter-Glo luminescence (AID 1117322); format: functional
[18] = biological target: Voltage-dependent T-type calcium channel subunit alpha-1H (Homo sapiens, UniProt O95180); format: functional;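 further: channel activity triggered by adding a high calcium stimulation buffer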
Ephrin type-A receptor 4 = Ephrin type-A receptor 4 (Mus musculus, UniProt Q03137); assay: EphA4 ligand-binding antagonists – biochemical, colorimetric, mouse EphA4, primary screen (AID 689); format: functional
[19] = HIV-1 Vif–A3G interaction blockers – biochemical, TR-FRET, GST-Vif 1-94, biotin-A3G peptide, dose response retest, primary screen (AID 1117319); format: functional;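 further: TR-FRET signal of purified GST-Vif binding a biotinylated A3G peptide; inhibitors lower the FRET signal by blocking Vif and A3G binding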
[20] = biological target: Peroxisome proliferator-activated receptor gamma/Nuclear receptor coactivator 1 (Homo sapiens, UniProt P37231); assay: (§1) TR-FRET dose response biochemical High Throughput Screening assay for agonists of the steroid receptor coactivator 1 (SRC-1) recruitment by the peroxisome proliferator-activated receptor gamma (PPAR gamma): non-selective agonists. [Related pubchem assays (depositor defined):AID1300, AID1808, AID504735, AID631]; format: protein assay
[21] = biological target: Peroxisome proliferator-activated receptor gamma/Nuclear receptor coactivator 3 (Homo sapiens, UniProt P37231); assay: as §1, with “3 (SRC-3)” for “1 (SRC-1)”, “assays: 1301 (Confirmation screen.), 1048 (Primary screen.)]” for “assays (depositor defined):AID1300, AID1808, AID504735, AID631]”; format: functional
[22] = biological target: Peroxisome proliferator-activated receptor gamma/Nuclear receptor coactivator 2 (Homo sapiens, UniProt P37231); assay: TR-FRET dose response biochemical High Throughput Screening assay for agonists of the steroid receptor coactivator 2 (SRC-2) recruitment by the peroxisome proliferator-activated receptor gamma (PPAR gamma): non-selective agonists. [Related pubchem assays: 1297, 1032 ]; format: functional
[23] = biological target: Glutathione-S-transferase (Schistosoma japonicum, UniProt Q26513); assay: GST-antibody interaction or FRET quenching – biochemical, TR-FRET, artefact control for Vif-APOBEC3G degradation inhibitor project, dose response (AID 1117362); format: functional
[24] = biological target: T3, Alkaline phosphatase, tissue-nonspecific isozyme (Homo sapiens, UniProt P05186)
T3 sequence (P05186 whole entry): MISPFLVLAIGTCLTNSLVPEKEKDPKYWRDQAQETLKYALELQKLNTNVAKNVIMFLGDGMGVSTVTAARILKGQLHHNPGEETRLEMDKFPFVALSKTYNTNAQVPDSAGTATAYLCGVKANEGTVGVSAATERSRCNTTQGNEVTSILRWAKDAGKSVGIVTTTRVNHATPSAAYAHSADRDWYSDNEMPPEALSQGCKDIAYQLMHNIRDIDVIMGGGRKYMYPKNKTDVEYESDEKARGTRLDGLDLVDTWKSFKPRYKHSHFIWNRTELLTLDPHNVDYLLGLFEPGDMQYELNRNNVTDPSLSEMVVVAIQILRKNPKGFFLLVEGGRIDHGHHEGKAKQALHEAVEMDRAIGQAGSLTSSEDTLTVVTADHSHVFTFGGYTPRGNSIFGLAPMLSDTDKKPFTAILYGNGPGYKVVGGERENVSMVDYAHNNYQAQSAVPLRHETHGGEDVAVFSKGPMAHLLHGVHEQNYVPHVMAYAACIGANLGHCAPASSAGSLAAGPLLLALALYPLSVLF

Large T antigen = Large T antigen (Simian virus 40, UniProt P03070); format: functional, Betapolyomavirus macacae;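 further: Confirmatory-stage PubChem screen for compounds that inhibit SV40 T antigen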
[25] = biological target: T4, Endoribonuclease toxin MazF (Escherichia coli K-12, UniProt P0AE70); assay: activation of MazEF endoribonuclease cleavage – biochemical, fluorescence, single-stranded RNA substrate, uHTS hits, dose response (AID 588481); format: functional
T4 sequence (P0AE70 whole entry): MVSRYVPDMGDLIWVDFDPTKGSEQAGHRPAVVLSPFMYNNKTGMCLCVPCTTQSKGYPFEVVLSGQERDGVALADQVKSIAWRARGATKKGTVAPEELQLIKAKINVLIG

H9c2 = assay: cells; format: functional, cell-based; conditions: Rattus norvegicus, H9c2, Myocardium
Streptococcus = assay: GAS UMAA2166 growth inhibition – luminescence, BacTiterGlo, counter-screen for streptokinase expression inhibitor project, dose response (AID 1915); format: functional, organism-based;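 further: potency for reduction of bacterial viability or growth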
[26] = biological target: T4, Endoribonuclease toxin MazF; assay: substrate-only fluorescence increase artefacts – biochemical, single-stranded RNase substrate, counter-screen for MazEF activator project, dose response (AID 588502); format: functional
[27] = system: Streptococcus sp. 'group A'; assay: Streptococcus pyogenes SK(-)GAS viability under kanamycin – luminescence, BacTiterGlo, confirmation, counter-screen for streptokinase expression inhibitor project, dose response (AID 1900); format: functional, organism-based
14-3-3 protein gamma = 14-3-3 protein gamma (Homo sapiens, UniProt P61981); assay: modulators of 14-3-3 gamma client binding – dose response (AID 711); format: functional
[28] = biological target: NAD-dependent protein deacylase sirtuin-5, mitochondrial (Homo sapiens, UniProt Q9NXA8); assay: blockers of sirtuin-5 peptide desuccinylation – biochemical, fluorescence imaging, cherry-pick, set 6, dose response (AID 720597)
NAD-dependent protein deacylase sirtuin-5, mitochondrial, sequence (Q9NXA8 whole entry): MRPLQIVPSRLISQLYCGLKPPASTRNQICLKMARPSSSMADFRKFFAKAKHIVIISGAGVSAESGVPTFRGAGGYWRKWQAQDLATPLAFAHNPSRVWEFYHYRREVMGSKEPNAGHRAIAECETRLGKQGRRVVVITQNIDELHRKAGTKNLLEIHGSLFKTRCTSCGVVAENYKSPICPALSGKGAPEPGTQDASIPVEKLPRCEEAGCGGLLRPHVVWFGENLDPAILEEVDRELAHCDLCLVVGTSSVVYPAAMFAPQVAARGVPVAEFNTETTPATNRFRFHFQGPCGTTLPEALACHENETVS

Peroxisome proliferator-activated receptor gamma/Nuclear receptor corepressor 2, sequence (P37231 whole entry): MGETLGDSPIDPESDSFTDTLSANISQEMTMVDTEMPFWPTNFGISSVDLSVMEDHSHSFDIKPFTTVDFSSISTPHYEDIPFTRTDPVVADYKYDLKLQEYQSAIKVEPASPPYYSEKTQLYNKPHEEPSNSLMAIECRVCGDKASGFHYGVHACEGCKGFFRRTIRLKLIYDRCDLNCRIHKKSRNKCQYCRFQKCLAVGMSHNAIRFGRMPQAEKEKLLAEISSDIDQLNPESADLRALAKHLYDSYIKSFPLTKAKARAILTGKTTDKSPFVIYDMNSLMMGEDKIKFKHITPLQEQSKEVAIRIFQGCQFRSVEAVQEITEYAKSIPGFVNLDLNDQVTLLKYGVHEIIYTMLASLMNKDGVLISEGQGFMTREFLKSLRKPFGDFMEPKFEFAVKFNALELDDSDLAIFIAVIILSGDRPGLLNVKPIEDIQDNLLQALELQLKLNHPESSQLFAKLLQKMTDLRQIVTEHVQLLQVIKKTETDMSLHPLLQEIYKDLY
Peroxisome proliferator-activated receptor gamma/Nuclear receptor corepressor 2, sequence (Q9Y618 whole entry): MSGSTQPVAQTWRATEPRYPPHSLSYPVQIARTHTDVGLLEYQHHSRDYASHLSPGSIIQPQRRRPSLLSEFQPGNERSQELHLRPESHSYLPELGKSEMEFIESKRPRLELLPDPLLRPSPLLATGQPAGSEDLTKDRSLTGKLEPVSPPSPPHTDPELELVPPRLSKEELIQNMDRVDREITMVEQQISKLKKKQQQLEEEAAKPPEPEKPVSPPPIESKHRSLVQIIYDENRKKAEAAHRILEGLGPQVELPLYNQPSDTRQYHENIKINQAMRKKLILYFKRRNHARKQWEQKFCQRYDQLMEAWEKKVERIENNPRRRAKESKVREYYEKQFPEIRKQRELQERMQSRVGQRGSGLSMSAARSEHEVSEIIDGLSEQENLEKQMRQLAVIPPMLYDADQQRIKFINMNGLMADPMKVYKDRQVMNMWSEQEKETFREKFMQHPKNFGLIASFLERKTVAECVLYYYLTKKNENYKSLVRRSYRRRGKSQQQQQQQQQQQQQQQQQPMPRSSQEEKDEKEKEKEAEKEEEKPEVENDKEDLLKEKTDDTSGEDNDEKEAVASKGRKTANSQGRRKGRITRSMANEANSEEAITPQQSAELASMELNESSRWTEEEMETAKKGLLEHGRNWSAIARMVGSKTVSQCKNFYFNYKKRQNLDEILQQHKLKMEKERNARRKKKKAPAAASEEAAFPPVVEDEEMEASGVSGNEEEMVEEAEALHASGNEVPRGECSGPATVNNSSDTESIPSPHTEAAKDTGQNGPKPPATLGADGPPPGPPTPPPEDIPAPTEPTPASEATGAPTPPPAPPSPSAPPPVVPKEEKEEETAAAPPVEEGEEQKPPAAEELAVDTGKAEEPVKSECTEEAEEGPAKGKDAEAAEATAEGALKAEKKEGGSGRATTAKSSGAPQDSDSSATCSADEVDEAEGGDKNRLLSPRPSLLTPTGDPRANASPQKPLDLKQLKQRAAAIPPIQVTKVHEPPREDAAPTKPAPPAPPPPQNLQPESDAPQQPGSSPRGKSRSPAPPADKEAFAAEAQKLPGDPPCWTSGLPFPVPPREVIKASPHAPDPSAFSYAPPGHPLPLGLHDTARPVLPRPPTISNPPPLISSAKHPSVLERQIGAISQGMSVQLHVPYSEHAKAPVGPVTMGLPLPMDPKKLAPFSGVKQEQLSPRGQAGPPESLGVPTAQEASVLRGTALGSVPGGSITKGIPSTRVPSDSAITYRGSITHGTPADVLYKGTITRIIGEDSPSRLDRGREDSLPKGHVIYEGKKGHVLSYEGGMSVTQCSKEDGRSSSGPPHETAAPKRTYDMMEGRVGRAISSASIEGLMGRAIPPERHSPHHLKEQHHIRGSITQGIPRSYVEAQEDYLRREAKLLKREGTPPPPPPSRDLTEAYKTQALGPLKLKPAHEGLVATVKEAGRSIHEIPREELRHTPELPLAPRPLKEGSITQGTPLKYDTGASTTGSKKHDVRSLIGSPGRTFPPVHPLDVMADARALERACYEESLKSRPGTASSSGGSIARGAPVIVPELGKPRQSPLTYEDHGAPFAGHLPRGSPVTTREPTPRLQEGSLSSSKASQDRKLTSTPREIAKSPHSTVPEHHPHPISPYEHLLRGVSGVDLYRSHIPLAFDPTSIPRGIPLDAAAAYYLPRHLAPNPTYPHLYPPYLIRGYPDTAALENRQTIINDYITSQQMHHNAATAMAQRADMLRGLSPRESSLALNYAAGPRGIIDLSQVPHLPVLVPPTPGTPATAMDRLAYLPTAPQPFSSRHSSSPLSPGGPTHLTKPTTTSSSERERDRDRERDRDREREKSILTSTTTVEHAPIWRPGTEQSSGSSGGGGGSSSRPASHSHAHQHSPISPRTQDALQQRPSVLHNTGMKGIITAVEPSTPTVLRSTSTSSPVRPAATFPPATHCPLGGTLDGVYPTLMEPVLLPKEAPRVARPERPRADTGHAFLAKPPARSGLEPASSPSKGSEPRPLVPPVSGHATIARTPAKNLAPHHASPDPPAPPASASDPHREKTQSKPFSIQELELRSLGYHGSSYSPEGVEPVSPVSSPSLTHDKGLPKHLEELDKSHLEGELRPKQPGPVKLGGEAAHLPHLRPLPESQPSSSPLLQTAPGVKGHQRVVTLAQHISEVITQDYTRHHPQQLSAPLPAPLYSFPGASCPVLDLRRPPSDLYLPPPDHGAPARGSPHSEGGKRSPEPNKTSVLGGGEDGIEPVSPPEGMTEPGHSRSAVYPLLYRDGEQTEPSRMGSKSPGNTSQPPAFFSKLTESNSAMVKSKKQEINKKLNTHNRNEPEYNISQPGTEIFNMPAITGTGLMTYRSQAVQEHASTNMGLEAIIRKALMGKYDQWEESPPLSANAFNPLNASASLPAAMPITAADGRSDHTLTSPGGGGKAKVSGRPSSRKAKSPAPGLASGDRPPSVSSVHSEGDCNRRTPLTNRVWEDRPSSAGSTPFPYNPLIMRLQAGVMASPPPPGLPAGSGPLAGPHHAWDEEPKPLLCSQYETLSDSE
Photoreceptor-specific nuclear receptor, sequence (Q9Y5X4 whole entry): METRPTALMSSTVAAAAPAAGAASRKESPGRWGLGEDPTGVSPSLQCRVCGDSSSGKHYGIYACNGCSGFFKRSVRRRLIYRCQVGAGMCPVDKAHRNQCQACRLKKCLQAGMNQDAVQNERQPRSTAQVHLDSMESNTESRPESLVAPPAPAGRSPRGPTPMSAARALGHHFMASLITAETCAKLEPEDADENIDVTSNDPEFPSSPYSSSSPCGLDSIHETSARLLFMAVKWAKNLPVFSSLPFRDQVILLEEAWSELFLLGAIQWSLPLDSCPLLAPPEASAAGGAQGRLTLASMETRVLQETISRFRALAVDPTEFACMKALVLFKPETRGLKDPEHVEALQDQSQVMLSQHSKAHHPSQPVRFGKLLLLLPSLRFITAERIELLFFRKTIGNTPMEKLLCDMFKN
Glutathione-S-transferase, sequence (Q26513 whole entry): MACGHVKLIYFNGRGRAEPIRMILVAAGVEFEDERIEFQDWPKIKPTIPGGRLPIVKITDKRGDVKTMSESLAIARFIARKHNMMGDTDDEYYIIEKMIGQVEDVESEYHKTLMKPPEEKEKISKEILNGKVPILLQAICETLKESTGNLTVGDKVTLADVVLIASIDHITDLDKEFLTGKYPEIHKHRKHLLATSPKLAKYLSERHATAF
Potassium voltage-gated channel subfamily KQT member 2, sequence (O88943 whole entry W236L): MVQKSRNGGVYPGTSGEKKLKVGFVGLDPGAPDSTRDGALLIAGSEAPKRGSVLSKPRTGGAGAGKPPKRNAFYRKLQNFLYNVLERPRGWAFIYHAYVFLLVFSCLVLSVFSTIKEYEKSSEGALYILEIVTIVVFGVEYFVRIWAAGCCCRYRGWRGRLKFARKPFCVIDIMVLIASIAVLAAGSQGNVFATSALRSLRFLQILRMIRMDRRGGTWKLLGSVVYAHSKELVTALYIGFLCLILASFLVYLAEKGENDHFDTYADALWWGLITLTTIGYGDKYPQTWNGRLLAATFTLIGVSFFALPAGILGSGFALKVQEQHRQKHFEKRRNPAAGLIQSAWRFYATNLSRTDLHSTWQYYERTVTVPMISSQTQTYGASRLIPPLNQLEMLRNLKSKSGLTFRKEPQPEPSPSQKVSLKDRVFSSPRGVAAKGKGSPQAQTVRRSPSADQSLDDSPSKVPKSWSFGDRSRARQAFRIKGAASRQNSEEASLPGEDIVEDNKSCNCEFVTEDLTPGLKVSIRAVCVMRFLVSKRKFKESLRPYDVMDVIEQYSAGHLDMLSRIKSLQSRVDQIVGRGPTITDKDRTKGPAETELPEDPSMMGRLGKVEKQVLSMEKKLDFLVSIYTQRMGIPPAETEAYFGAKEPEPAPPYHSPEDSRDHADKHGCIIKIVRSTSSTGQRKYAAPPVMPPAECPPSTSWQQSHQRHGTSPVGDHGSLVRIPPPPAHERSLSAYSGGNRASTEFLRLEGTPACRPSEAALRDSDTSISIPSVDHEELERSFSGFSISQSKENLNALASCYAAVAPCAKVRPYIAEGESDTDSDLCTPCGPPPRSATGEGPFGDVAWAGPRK
14-3-3 protein gamma, sequence (P61981 whole entry): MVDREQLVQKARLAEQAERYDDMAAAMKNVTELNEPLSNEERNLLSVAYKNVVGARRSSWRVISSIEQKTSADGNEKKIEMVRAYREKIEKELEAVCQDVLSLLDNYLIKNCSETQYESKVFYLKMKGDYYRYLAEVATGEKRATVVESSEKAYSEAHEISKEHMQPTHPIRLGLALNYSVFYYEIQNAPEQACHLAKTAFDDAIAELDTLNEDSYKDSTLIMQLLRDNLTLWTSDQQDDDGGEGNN

## C#CCn1/c(=N/C(=O)CSC(C)=O)sc2cc(F)ccc21
[1]
  EC50: 2.97 µM (active)

## Cc1sc(NC(=O)C2CCCCC2)c(C#N)c1-c1ccccc1
H4
  EC50: 7.76 µM (active)
[2]
  AC50: 3.43 µM (active)
[3]
  EC50: < 0.1 µM (active)
[4]
  EC50: 0.375 µM (active)
Cytochrome P450 2D6
  AC50: 7.08 µM (inconclusive)
[5]
  EC50: 0.689 µM (active)
[6]
  EC50: 0.174 µM (active)

## S=c1[nH]c(SCc2ccccc2)nc2ccccc12
Streptokinase A
  EC50: > 150 µM (not active)
[7]
  IC50: 2.48 µM (active)
[8]
  EC50: 227 µM (active)
[9]
  IC50: > 39.8 µM (not active)

## CCOC(=O)C=C(C)C=CC[C@@H](C)CCCC(C)C
[10]
  IC50: > 20 µM (inactive)
[11]
  IC50: > 20 µM (inactive)
[12]
  IC50: > 20 µM (inactive)
[13]
  IC50: > 20 µM (inactive)
[14]
  IC50: > 20 µM (inactive)
[15]
  IC50: > 20 µM (inactive)
[16]
  IC50: > 20 µM (inactive)
[17]
  IC50: > 20 µM (inactive)

## COc1ccc(C(c2nnnn2Cc2cccs2)N2CCN(c3ccccc3F)CC2)cc1 (stereo unspecified)
[18]
  EC50: 18 µM (active)
Ephrin type-A receptor 4
  IC50: > 100 µM (not active)

## CC(C(=O)N1CCOCC1)(c1ccccc1)c1ccccc1
[19]
  IC50: > 100 µM (active)

## O=C(CSc1ncnc2c1oc1ccccc12)c1cccs1
[7]
  IC50: 15.3 µM (not active)
[20]
  EC50: > 26.5 µM (inactive)
[21]
  EC50: > 79.4 µM (not active)
[22]
  EC50: > 8.82 µM (not active)
[9]
  IC50: > 39.8 µM (not active)

## C=CCn1c(C)cc(-c2csc(N)n2)c1C
[23]
  IC50: 28.2 µM (active)

## COc1ccc(NC(=O)CSc2nc3ccccc3c3nc4ccccc4n23)cc1
[24]
  EC50: > 100 µM (not active)

## Nc1ccc(-c2nc3cc(N)ccc3n2CCO)cc1
Large T antigen
  IC50: 41.7 µM (active)
[23]
  IC50: > 100 µM (active)

## Oc1c(Cl)cc(Cl)cc1/C=N/c1nccs1
[1]
  EC50: 11.6 µM (active)

## CCn1c(O)c(/C=N/N=C/c2ccccc2)c2ccc(C3=NNC(=O)CC3)cc21
Streptokinase A
  EC50: > 150 µM (not active)
[25]
  EC50: > 99 µM (inactive)
H9c2
  IC50: > 79 µM (inactive)
Streptococcus
  EC50: 10.5 µM (active)
Ephrin type-A receptor 4
  IC50: > 100 µM (not active)
[26]
  EC50: > 99 µM (inactive)
[27]
  EC50: 6.42 µM (active)

## CN(C)S(=O)(=O)CC12CCC(CC1=O)C2(C)C (stereo unspecified)
14-3-3 protein gamma
  IC50: > 50 µM (not active)

## CC(C)CC#Cc1ccc([C@@H]2[C@@H](CO)N3C(=O)CN(C(=O)c4ccccn4)C[C@H]23)cc1
[28]
  AC50: 19.7 µM (active)

## O=[N+]([O-])c1cccc(S(=O)(=O)NCCNS(=O)(=O)c2cccc([N+](=O)[O-])c2)c1 [DINSED]
[10]
  IC50: > 20 µM (inactive)
[11]
  IC50: > 20 µM (inactive)
[12]
  IC50: > 20 µM (inactive)
[13]
  IC50: > 20 µM (inactive)
[14]
  IC50: > 20 µM (inactive)
[15]
  IC50: > 20 µM (inactive)
[16]
  IC50: > 20 µM (inactive)
[17]
  IC50: > 20 µM (inactive)

## CCN(CC)C(=O)c1ccc(CS(=O)(=O)c2ccc(OC)cc2)o1
[19]
  IC50: > 100 µM (active)
